Test results: patent US20190256929A1, “PHARMACODYNAMIC BIOMARKERS FOR PERSONALIZED CANCER CARE USING EPIGENETIC MODIFYING AGENTS” (ORYZON GENOMICS, S.A., priority 2016, published 2019)

Test system: small cell lung cancer cell lines
Experiment: qRT-PCR time- and dosage-dependent expression change of candidate PD markers ASCL1, GRP, NOTCH1 in SCLC cell lines
Format: cell-based, human
Procedure: Seven small cell lung cancer cell lines were treated with 0.1 nM, 1 nM and 10 nM (trans)-N1-((1R,2S)-2-phenylcyclopropyl)cyclohexane-1,4-diamine or vehicle 24 hr, 96 hr and 7 days. Lysates were prepared by lysis in RNA lysis buffer containing 1% β-mercaptoethanol. RNA extraction was performed using a Maxwell 16 instrument and a Maxwell 16 LEV simply RNA cells Kit (Promega), according to the manufacturer's instructions. The mRNA expression levels of each cell line after treatment were then measured using qRT-PCR. The RT-qPCR reaction was conducted using a one-step kit (ABI), with a duplexed house-keeping control (Assay ID Hs02800695_m1) using the assays in the table below. The log 2 fold changes for each gene were calculated by comparing with the vehicle controlled samples at 24 hr sampling point.
Table 6 contains the dose-dependent effect on expression changes for candidate PD markers ASCL1 (Assay ID Hs04187546_g1), GRP (Assay ID Hs01107047_m1) and NOTCH1 (Assay ID Hs01062014_m1).

[1] = SHP-77, 0.1 nM, 24 hrs, vs vehicle at 24 hr
[2] = SHP-77, 0.1 nM, 96 hrs, vs vehicle at 24 hr
[3] = SHP-77, 0.1 nM, 168 hrs, vs vehicle at 24 hr
[4] = SHP-77, 1 nM, 24 hrs, vs vehicle at 24 hr
[5] = SHP-77, 1 nM, 96 hrs, vs vehicle at 24 hr
[6] = SHP-77, 1 nM, 168 hrs, vs vehicle at 24 hr
[7] = SHP-77, 10 nM, 24 hrs, vs vehicle at 24 hr
[8] = SHP-77, 10 nM, 96 hrs, vs vehicle at 24 hr
[9] = SHP-77, 10 nM, 168 hrs, vs vehicle at 24 hr

In the case of `N[C@H]1CC[C@H](N[C@@H]2C[C@H]2c2ccccc2)CC1` [RG6016, (trans)-N1-((1R,2S)-2-phenylcyclopropyl)cyclohexane-1,4-diamine], the “Log2_FC ASCL1” value (NCI-H510A, 1 nM, 168 hrs) is reported as −0.51, the “Log2_FC GRP” value (NCI-H510A, 1 nM, 168 hrs) is reported as −2.34 and the “Log2_FC NOTCH1” value (NCI-H510A, 1 nM, 168 hrs) is reported as 3.98. The “Log2_FC ASCL1” value (NCI-H510A, 10 nM, 24 hrs) was −0.28, the “Log2_FC GRP” value (NCI-H510A, 10 nM, 24 hrs) was −0.35 and the “Log2_FC NOTCH1” value (NCI-H510A, 10 nM, 24 hrs) was 1.60. The “Log2_FC ASCL1” value (NCI-H510A, 10 nM, 96 hrs) was −0.55, the “Log2_FC GRP” value (NCI-H510A, 10 nM, 96 hrs) was −2.02 and the “Log2_FC NOTCH1” value (NCI-H510A, 10 nM, 96 hrs) was 2.89. The “Log2_FC ASCL1” value (NCI-H510A, 10 nM, 168 hrs) was −0.64, the “Log2_FC GRP” value (NCI-H510A, 10 nM, 168 hrs) was −2.53 and the “Log2_FC NOTCH1” value (NCI-H510A, 10 nM, 168 hrs) was 4.16. The “Log2_FC NOTCH1” value (NCI-H526, 0.1 nM, 24 hrs, vs vehicle at 24 hr) was 0.04, the “Log2_FC NOTCH1” value (NCI-H526, 0.1 nM, 96 hrs, vs vehicle at 24 hr) was 0.51 and the “Log2_FC NOTCH1” value (NCI-H526, 0.1 nM, 168 hrs, vs vehicle at 24 hr) was 0.55. For the same molecule, the “Log2_FC NOTCH1” value (NCI-H526, 1 nM, 24 hrs, vs vehicle at 24 hr) was 0.27, the “Log2_FC NOTCH1” value (NCI-H526, 1 nM, 96 hrs, vs vehicle at 24 hr) was 0.53 and the “Log2_FC NOTCH1” value (NCI-H526, 1 nM, 168 hrs, vs vehicle at 24 hr) was 0.96. For the same molecule, the “Log2_FC NOTCH1” value (NCI-H526, 10 nM, 24 hrs, vs vehicle at 24 hr) was 0.41, the “Log2_FC NOTCH1” value (NCI-H526, 10 nM, 96 hrs, vs vehicle at 24 hr) was 0.70 and the “Log2_FC NOTCH1” value (NCI-H526, 10 nM, 168 hrs, vs vehicle at 24 hr) was 0.33. The “Log2_FC ASCL1” value (NCI-H1417, 0.1 nM, 24 hrs) was −0.19, the “Log2_FC GRP” value (NCI-H1417, 0.1 nM, 24 hrs) was 0.24 and the “Log2_FC NOTCH1” value (NCI-H1417, 0.1 nM, 24 hrs) was 0.14. For the same molecule, the “Log2_FC ASCL1” value (NCI-H1417, 0.1 nM, 96 hrs) was 0.12, the “Log2_FC GRP” value (NCI-H1417, 0.1 nM, 96 hrs) was −0.25 and the “Log2_FC NOTCH1” value (NCI-H1417, 0.1 nM, 96 hrs) was 0.98. For the same molecule, the “Log2_FC ASCL1” value (NCI-H1417, 0.1 nM, 168 hrs) was 0.13, the “Log2_FC GRP” value (NCI-H1417, 0.1 nM, 168 hrs) was −0.51 and the “Log2_FC NOTCH1” value (NCI-H1417, 0.1 nM, 168 hrs) was 0.86. The “Log2_FC ASCL1” value (NCI-H1417, 1 nM, 24 hrs) was −0.20, the “Log2_FC GRP” value (NCI-H1417, 1 nM, 24 hrs) was −0.25 and the “Log2_FC NOTCH1” value (NCI-H1417, 1 nM, 24 hrs) was 1.40. The “Log2_FC ASCL1” value (NCI-H1417, 1 nM, 96 hrs) was −0.27, the “Log2_FC GRP” value (NCI-H1417, 1 nM, 96 hrs) was −1.06 and the “Log2_FC NOTCH1” value (NCI-H1417, 1 nM, 96 hrs) was 3.04. The “Log2_FC ASCL1” value (NCI-H1417, 1 nM, 168 hrs) was −0.19, the “Log2_FC GRP” value (NCI-H1417, 1 nM, 168 hrs) was −0.68 and the “Log2_FC NOTCH1” value (NCI-H1417, 1 nM, 168 hrs) was 2.55. For the same molecule, the “Log2_FC ASCL1” value (NCI-H1417, 10 nM, 24 hrs) was −0.25, the “Log2_FC GRP” value (NCI-H1417, 10 nM, 24 hrs) was −0.35 and the “Log2_FC NOTCH1” value (NCI-H1417, 10 nM, 24 hrs) was 1.86. For the same molecule, the “Log2_FC ASCL1” value (NCI-H1417, 10 nM, 96 hrs) was −0.54, the “Log2_FC GRP” value (NCI-H1417, 10 nM, 96 hrs) was −1.13 and the “Log2_FC NOTCH1” value (NCI-H1417, 10 nM, 96 hrs) was 3.14. For the same molecule, the “Log2_FC ASCL1” value (NCI-H1417, 10 nM, 168 hrs) was −0.66, the “Log2_FC GRP” value (NCI-H1417, 10 nM, 168 hrs) was −1.14 and the “Log2_FC NOTCH1” value (NCI-H1417, 10 nM, 168 hrs) was 3.22. For the same molecule, the “Log2_FC ASCL1” value (NCI-H1876, 0.1 nM, 24 hrs) was 0.16, the “Log2_FC GRP” value (NCI-H1876, 0.1 nM, 24 hrs) was 0.41 and the “Log2_FC NOTCH1” value (NCI-H1876, 0.1 nM, 24 hrs) was 0.82. For the same molecule, the “Log2_FC ASCL1” value (NCI-H1876, 0.1 nM, 96 hrs) was −0.58, the “Log2_FC GRP” value (NCI-H1876, 0.1 nM, 96 hrs) was −1.58 and the “Log2_FC NOTCH1” value (NCI-H1876, 0.1 nM, 96 hrs) was −0.76. The “Log2_FC ASCL1” value (NCI-H1876, 0.1 nM, 168 hrs) was 0.35, the “Log2_FC NOTCH1” value (NCI-H1876, 0.1 nM, 168 hrs) was −0.59 and the “Log2_FC ASCL1” value (NCI-H1876, 1 nM, 24 hrs) was 0.04. For the same molecule, the “Log2_FC GRP” value (NCI-H1876, 1 nM, 24 hrs) was 0.70, the “Log2_FC NOTCH1” value (NCI-H1876, 1 nM, 24 hrs) was 2.28 and the “Log2_FC ASCL1” value (NCI-H1876, 1 nM, 96 hrs) was −0.54. For the same molecule, the “Log2_FC GRP” value (NCI-H1876, 1 nM, 96 hrs) was −1.96, the “Log2_FC NOTCH1” value (NCI-H1876, 1 nM, 96 hrs) was 1.08 and the “Log2_FC ASCL1” value (NCI-H1876, 1 nM, 168 hrs) was 0.32. For the same molecule, the “Log2_FC GRP” value (NCI-H1876, 1 nM, 168 hrs) was −0.54, the “Log2_FC ASCL1” value (NCI-H1876, 10 nM, 24 hrs) was −0.02 and the “Log2_FC GRP” value (NCI-H1876, 10 nM, 24 hrs) was 0.38. For the same molecule, the “Log2_FC NOTCH1” value (NCI-H1876, 10 nM, 24 hrs) was 2.67, the “Log2_FC ASCL1” value (NCI-H1876, 10 nM, 96 hrs) was −0.82 and the “Log2_FC NOTCH1” value (NCI-H1876, 10 nM, 96 hrs) was 2.07. For the same molecule, the “Log2_FC ASCL1” value (NCI-H1876, 10 nM, 168 hrs) was 0.03, the “Log2_FC GRP” value (NCI-H1876, 10 nM, 168 hrs) was −1.38 and the “Log2_FC NOTCH1” value (NCI-H1876, 10 nM, 168 hrs) was 2.55. The “Log2_FC ASCL1” value (NCI-H2171, 0.1 nM, 24 hrs) was −0.14, the “Log2_FC GRP” value (NCI-H2171, 0.1 nM, 24 hrs) was 0.01 and the “Log2_FC NOTCH1” value (NCI-H2171, 0.1 nM, 24 hrs) was 0.49. The “Log2_FC ASCL1” value (NCI-H2171, 0.1 nM, 96 hrs) was −0.29, the “Log2_FC GRP” value (NCI-H2171, 0.1 nM, 96 hrs) was −1.96 and the “Log2_FC NOTCH1” value (NCI-H2171, 0.1 nM, 96 hrs) was 0.95. For the same molecule, the “Log2_FC ASCL1” value (NCI-H2171, 0.1 nM, 168 hrs) was −0.16, the “Log2_FC GRP” value (NCI-H2171, 0.1 nM, 168 hrs) was −1.11 and the “Log2_FC NOTCH1” value (NCI-H2171, 0.1 nM, 168 hrs) was 0.90. The “Log2_FC ASCL1” value (NCI-H2171, 1 nM, 24 hrs) was −0.06, the “Log2_FC NOTCH1” value (NCI-H2171, 1 nM, 24 hrs) was 0.75 and the “Log2_FC ASCL1” value (NCI-H2171, 1 nM, 96 hrs) was −0.43. The “Log2_FC GRP” value (NCI-H2171, 1 nM, 96 hrs) was −1.17, the “Log2_FC NOTCH1” value (NCI-H2171, 1 nM, 96 hrs) was 1.17 and the “Log2_FC ASCL1” value (NCI-H2171, 1 nM, 168 hrs) was −0.02. For the same molecule, the “Log2_FC GRP” value (NCI-H2171, 1 nM, 168 hrs) was −1.56, the “Log2_FC NOTCH1” value (NCI-H2171, 1 nM, 168 hrs) was 1.41 and the “Log2_FC ASCL1” value (NCI-H2171, 10 nM, 24 hrs) was −0.16. For the same molecule, the “Log2_FC GRP” value (NCI-H2171, 10 nM, 24 hrs) was −0.37, the “Log2_FC NOTCH1” value (NCI-H2171, 10 nM, 24 hrs) was 0.82 and the “Log2_FC ASCL1” value (NCI-H2171, 10 nM, 96 hrs) was −0.27. The “Log2_FC GRP” value (NCI-H2171, 10 nM, 96 hrs) was −0.46, the “Log2_FC NOTCH1” value (NCI-H2171, 10 nM, 96 hrs) was 1.22 and the “Log2_FC ASCL1” value (NCI-H2171, 10 nM, 168 hrs) was −0.11. For the same molecule, the “Log2_FC GRP” value (NCI-H2171, 10 nM, 168 hrs) was −0.87, the “Log2_FC NOTCH1” value (NCI-H2171, 10 nM, 168 hrs) was 1.63 and the “Log2_FC ASCL1” value [1] was −0.11. The “Log2_FC GRP” value [1] was 0.17, the “Log2_FC ASCL1” value [2] was 0.11 and the “Log2_FC GRP” value [2] was 0.74. The “Log2_FC ASCL1” value [3] was −0.36, the “Log2_FC GRP” value [3] was 0.43 and the “Log2_FC ASCL1” value [4] was 0.52. The “Log2_FC GRP” value [4] was 1.20, the “Log2_FC ASCL1” value [5] was 0.38 and the “Log2_FC GRP” value [5] was 0.83. The “Log2_FC ASCL1” value [6] was −0.33, the “Log2_FC GRP” value [6] was 0.16 and the “Log2_FC ASCL1” value [7] was −0.07. For the same molecule, the “Log2_FC GRP” value [7] was −0.10, the “Log2_FC ASCL1” value [8] was 0.22 and the “Log2_FC GRP” value [8] was 0.56. For the same molecule, the “Log2_FC ASCL1” value [9] was −0.50 and the “Log2_FC GRP” value [9] was −0.06.
